Laboratory results published in ChEMBL document CHEMBL1158151, “Cactus Alkaloids. XXXIX. A Glucotetrahydroiosquinoline From the Mexican Cactus, Pterocereus gaumeri” (1979).
Converted amounts (≈) assume the structure as drawn.

Assay: Cytotoxicity against human 9KB cells
Type: functional
Details: read-out: ED50 (the source's name)

Row | Structure (SMILES) | EC50
1 | COc1cc2c(c(O)c1OC)CCN(C)C2CO (configuration not stated) [DEGLUCOPTEROCEREINE] | 16 mg/L (≈ 63.2 µM)
2 | COc1cc2c(c(O[C@@H]3O[C@H](CO)[C@@H](O)[C@H](O)[C@H]3O)c1OC)CCN(C)C2CO (some centres not stated) [PTEROCEREINE] | > 100 mg/L
